Results as given in patent publication US20220331492A1, “COMPOSITION AND METHOD FOR CONTROLLED DRUG RELEASE FROM A TISSUE” (Bard Shannon Limited, priority 2017, published 2022).

How the values were obtained:
[1] = cited from earlier work
[2] = tested on: Bacillus subtilis (ATCC 6633); test: Microdilution assay of hydrogel disc extracts versus MIC; type: cell-based; conditions: extracts of crosslinked gelatin hydrogel containing 2% drug-loaded PLGA beads; throughout the study (1-14 days)
Description: (§1) The bacteria used was Bacillus subtilis, which serves as a model microorganism for gram positive bacteria.
6 discs of 0.2 gr crosslinked gelatin containing 2% vancomycin/gentamicin-encapsulated PLGA beads were casted in plastic mold of 12 mm diameter. After […] of curing at 37° C., the gels were separately placed in glass vial filled with 1.5 mL sodium phosphate buffer. The vials were placed in an incubator at 37° C. After 1, 2, 4, 7, 11 and 14 days, the gel was taken out and the hydrogel extract was frozen until test.
The antibacterial activity of the hydrogel discs extracts was studied by employing a microdilution method (FIG. 3b). Plates were prepared under sterile conditions. 100 μL of test materials were pipetted into the first column of the sterile 96-well plate. To all other wells 50 μL of saline was added. Serial dilutions were performed using a multichannel pipette. Tips were discarded after use such that each well had 50 μL of the test material in serially descending concentrations. […]
After 24 hours, the OD of each well was measured at 600 nm to determinate the presence or absence of bacterium. The lowest concentration at which […] was taken as the MIC value.

[3] = tested on: Bacillus subtilis (ATCC 6633); test: Agar disk-diffusion (Kirby-Bauer) assay of crosslinked gelatin discs containing antibiotic PLGA beads; type: cell-based; conditions: crosslinked gelatin hydrogel containing drug-loaded PLGA MPs; gels incubated in saline for 14 days
Description: as §1
3 discs of 0.2 gr crosslinked gelatin containing 2% vancomycin-gentamicin-encapsulated PLGA beads were casted as previously reported 3 additional discs without beads were also casted and used as negative control. Filters containing 30 μg antibiotics (gentamicin or vancomycin) were used as positive controls.
The gel discs with and without beads and the filter containing antibiotics were placed in LB agar plates on which 100 μl of bacterium suspension had been evenly spread. The petri dishes were placed in an orbital shaker incubator at 37° C. where a horizontal shake was performed at 120 rpm.

[4] = In vitro drug release from antibiotic-encapsulated PLGA microparticles; type: physicochemical; conditions: drug encapsulated in free PLGA (50:50) microparticles; buffer, 37° C., 120 rpm
Description: The amount of antibiotic was determined by dissolving 20 mg beads in 1 mL NaOH 1 M at 37° C. After complete dissolution, 1 mL of HCl 1 M was added to neutralize the pH. […] A mixture of NaOH 1 M and HCl 1 M (1:1) was used as a blank.
The gentamicin concentration was determined by a colormetric assay: 0.5 mL of the gentamicin solution was mixed with 0.35 mL of sodium phosphate buffer (50 mM, pH 7.4) and 0.15 mL of 1.25% ninhydrin solution. The reaction occurred at 95° C. for 15 minutes and the tubes were then cooled in an ice-water bath for 10 min. The UV-visible spectra over the wavelength range of 200-700 nm were measured using the mixture of ninhydrin and the respective buffer solution at the appropriate concentrations as the blanks. The gentamicin concentration was calculated at the maximal absorbance (λmax˜315 nm).
The microspheres (25 mg of ciprofloxacin-encapsulated PLGA beads, 80 mg of gentamicin encapsulated PLGA beads, 40 mg of vancomycin-encapsulated PLGA beads) were placed into glass vials filled with 10 mL solution (PBS for vancomycin and ciprofloxacin-encapsulated PLGA beads and sodium phosphate buffer for gentamicin encapsulated PLGA beads). The vials were placed in an orbital shaker incubator at 37° C., where they were shaken at 120 rpm. […] Finally, the 1.5 mL of suspension were returned back into the glass vials. For gentamicin, the reaction with ninhydrin is irreversible. 0.5 ml, of the solution was replaced each day with fresh sodium phosphate buffer to maintain a constant volume.

[5] = mixed with fibrin glue; cited from earlier work
[6] = Release of ciprofloxacin from PLGA microparticles embedded in enzymatically crosslinked gelatin matrix; type: physicochemical
Description: Entrapment of microparticles in enzymatically crosslinked gelatin hydrogel was performed as follows.
This solution was mixed with 5.0 gr of gelatin solution. 0.25 gr of the mixture was cast in a glass vial, and curing occurred at 37° C. for 15 min. 5 mL of PBS was added to the vial to wash the gel. An additional 5 mL of PBS was added and the vial was placed in an orbital shaker incubator at 37° C. where it was shaken at 120 rpm. Once a day, 1.5 mL of the cured gel extract was centrifuged and 1 mL of the supernatant was taken to spectrophotometer to measure the drug concentration. After measurement, the 1.5 mL extract was returned back into the glass vials, crosslinked gelatin without beads was casted according to the same procedure and the extract was used as blank.

For `CCOC(=O)c1ccc(N)cc1` [Benzocaine], which water solubility [1] is on record?
The water solubility was “very low”.

Which “concentration of the eluted antibiotic drug relative to MIC” value [2] does the source give for gentamycin here?
Its value is “considerably above MIC”.

And the “bacteria killing (ring around the gel) in agar diffusion assay” value [3]?
The value was “still had enough drug remaining within the matrix to induce bacteria killing”.

What about the “release kinetics after initial burst release” value (“release kinetics” for short) [4] of the same molecule?
The value was “zero order kinetics”.

Which release time [5] does the source give for `Cc1nnc(SCC2=C(C(=O)O)N3C(=O)[C@@H](NC(=O)Cn4cnnn4)[C@H]3SC2)s1` [cefazolin] here?
Its release time is 2 days.

Which “time over which the drug eluted” value ([6]; PLGA MPs embedded in in situ cross-linkable gelatin matrix) does the source give for `O=C(O)c1cn(C2CC2)c2cc(N3CCNCC3)c(F)cc2c1=O` [ciprofloxacin] here?
The value was 2 weeks.

What about the “release rate of MPs embedded in gelatin matrix compared to free MPs” value ([6]; PLGA MPs embedded in in situ enzymatically crosslinked gelatin, PBS, 37° C.) of the same molecule?
The value was “somewhat slower”.

What about the “release kinetics” value [4] of the same molecule?
The value was “zero order kinetics”.

With `CN[C@H](CC(C)C)C(=O)N[C@H]1C(=O)N[C@@H](CC(N)=O)C(=O)N[C@H]2C(=O)N[C@H]3C(=O)N[C@H](C(=O)N[C@H](C(=O)O)c4cc(O)cc(O)c4-c4cc3ccc4O)[C@H](O)c3ccc(c(Cl)c3)Oc3cc2cc(c3O[C@@H]2O[C@H](CO)[C@@H](O)[C@H](O)[C@H]2O[C@H]2C[C@](C)(N)[C@H](O)[C@H](C)O2)Oc2ccc(cc2Cl)[C@H]1O` [vancomycin] as the molecule, how does the “concentration of the eluted antibiotic drug relative to MIC” value [2] read?
Its value is “considerably above MIC”.

And the “bacteria killing (ring around the gel) in agar diffusion assay” value [3]?
Its value is “still had enough drug remaining within the matrix to induce bacteria killing”.

And the “release kinetics” value [4]?
The value was “zero order kinetics”.
